Test results from article PMC11898701, “Evaluating Therapeutic Efficacy of the Vascular Disrupting Agent OXi8007 Against Kidney Cancer in Mice” (Cancers, 2025).
Like-named read-outs stand apart in the source and are kept apart here. Marks after values point to notes of the source that are not given here.

Assay: Pharmacokinetic study in Renca-luc tumor-bearing BALB/c mice
Assay type: in vivo, mouse
Settings: for Tmax / half-life / Cmax: ip; for Cmax: read-out: Cmax
Protocol: Plasma and tissues were harvested at various time points (20 min to 16 h) from Renca-luc tumor-bearing BALB/c male mice following the administration of OXi8007 IP. Mice treated with 250 mg/kg were sacrificed at 20 min (n = 3), 1 h (n = 4), 2 h (n = 4), 4 h (n = 4), 8 h (n = 4), and 16 h (n = 4). Mice were anesthetized, exsanguinated, the tissues were blotted, and then they were weighed and frozen in liquid nitrogen. Homogenized plasma and tissue samples were extracted with acetonitrile with a bead mill; internal standard (CA4 or tri-labeled ^13C-OXi8006) was added to each sample to reach a final concentration of 10 ppb. Samples were centrifuged twice to remove precipitated proteins (16,260× g for 10 min at 4 °C). Clear supernatant was transferred into MS vials, and formic acid was added to a final concentration of 0.1% for LC-MS analysis. […] Mobile phase A consisted of 0.1% v/v formic acid in water, and mobile phase B was acetonitrile, which was mixed by the binary pump with an elution gradient at a flow rate of 0.6 mL/min. Data were analyzed using Xcalibur 4.6 software based on exact masses, and Phoenix WinNonlin 8.5.0 software was used to determine the pharmacokinetic parameters based on a non-compartmental model.

[1] = male, BALB/c, mouse, in vivo, 250 mg/kg, brain, after OXi8007 250 mg/kg IP
[2] = male, BALB/c, mouse, in vivo, 250 mg/kg, heart, after OXi8007 250 mg/kg IP
[3] = male, BALB/c, mouse, in vivo, 250 mg/kg, left kidney, after OXi8007 250 mg/kg IP
[4] = male, BALB/c, mouse, in vivo, 250 mg/kg, liver, after OXi8007 250 mg/kg IP
[5] = male, BALB/c, mouse, in vivo, 250 mg/kg, lungs, after OXi8007 250 mg/kg IP
[6] = male, BALB/c, mouse, in vivo, 250 mg/kg, plasma, after OXi8007 250 mg/kg IP
[7] = male, BALB/c, mouse, in vivo, 250 mg/kg, spleen, after OXi8007 250 mg/kg IP
[8] = male, BALB/c, mouse, in vivo, 250 mg/kg, tumor and right kidney, after OXi8007 250 mg/kg IP

COc1ccc2c(C(=O)c3cc(OC)c(OC)c(OC)c3)c(-c3ccc(OC)c(OP(=O)(O)O)c3)[nH]c2c1 [OXi8007]
Concentration in the tumor, molar equivalent (Renca-luc tumor, from 15 ng/mg): 32 µM | Concentration in the tumor (Renca-luc tumor, maximum): 15 ng/mg | AUC (brain, after OXi8007 250 mg/kg IP): 0.11 ng·h/mg | AUC (heart, after OXi8007 250 mg/kg IP): 1.32 ng·h/mg | AUC (left kidney, after OXi8007 250 mg/kg IP): 2.05 ng·h/mg | AUC (liver, after OXi8007 250 mg/kg IP): 12.67 ng·h/mg | AUC (lungs, after OXi8007 250 mg/kg IP): 2.3 ng·h/mg | concentration at 4 h (male, BALB/c, mouse, in vivo, 250 mg/kg, plasma, within 4 h after OXi8007 IP): 10 µg/mL | Tmax (male, BALB/c, mouse, in vivo, 250 mg/kg, Renca-luc tumors, IP administration, read-out: Time to maximum concentration in tumors): ≤ 60 min | half-life [1]: 30.6 min | Cmax [1]: 70 ng/g | Tmax (male, BALB/c, mouse, in vivo, 250 mg/kg, brain, after OXi8007 250 mg/kg IP, read-out: Tmax (converted)): 60 min | half-life [2]: 36.6 min | Cmax [2]: 1620 ng/g | Tmax (male, BALB/c, mouse, in vivo, 250 mg/kg, heart, after OXi8007 250 mg/kg IP, read-out: Tmax (converted)): 20 min | half-life [3]: 70.8 min | Cmax [3]: 1400 ng/g | Tmax (male, BALB/c, mouse, in vivo, 250 mg/kg, left kidney, after OXi8007 250 mg/kg IP, read-out: Tmax (converted)): 20 min | half-life [4]: 66 min | Cmax [4]: 13400 ng/g | Tmax (male, BALB/c, mouse, in vivo, 250 mg/kg, liver, after OXi8007 250 mg/kg IP, read-out: Tmax (converted)): 20 min | half-life [5]: 42 min | Cmax [5]: 1610 ng/g | Tmax (male, BALB/c, mouse, in vivo, 250 mg/kg, lungs, after OXi8007 250 mg/kg IP, read-out: Tmax (converted)): 20 min | half-life [6]: 49 min | half-life (male, BALB/c, mouse, in vivo, 250 mg/kg, plasma, after OXi8007 250 mg/kg IP, Renca-luc tumor-bearing BALB/c mice): 49.2 min | Cmax [6]: 453 µg/mL | Tmax (male, BALB/c, mouse, in vivo, 250 mg/kg, plasma, after OXi8007 250 mg/kg IP, read-out: Tmax (converted)): 20 min | half-life [7]: 39 min | Cmax [7]: 990 ng/g | Tmax (male, BALB/c, mouse, in vivo, 250 mg/kg, spleen, after OXi8007 250 mg/kg IP, read-out: Tmax (converted)): 60 min | half-life [8]: 120 min | Cmax [8]: 15000 ng/g | Tmax (male, BALB/c, mouse, in vivo, 250 mg/kg, tumor and right kidney, after OXi8007 250 mg/kg IP, read-out: Tmax (converted)): 60 min | Plasma concentration (plasma, maximum, after OXi8007 IP): about 450 µg/mL | AUC (plasma, after OXi8007 250 mg/kg IP, zero to last quantifiable concentration): 511 ^# h × ng/µL | AUC (spleen, after OXi8007 250 mg/kg IP): 1.41 ng·h/mg | AUC (tumor and right kidney, after OXi8007 250 mg/kg IP): 36.31 ng·h/mg
